Data from patent US20250034110A1, “LPAR1 ANTAGONISTS AND USES THEREOF” (Pipeline Therapeutics, Inc., priority 2021, published 2025).
pIC50: −log10 of the molar value.

biological target: human LPAR1 (Homo sapiens, UniProt Q92633); assay: In vitro functional assay of lysophosphatidic acid receptor 1 activity (calcium flux); format: cell-based; details: B103 cells stably expressing human LPAR1; calcium flux (Fluo-4 NW) after lysophosphatidic acid (18:1) at EC80; 100 pM to 10 μM; read-out: LPAR1 IC50
Sequence (Q92633 whole entry): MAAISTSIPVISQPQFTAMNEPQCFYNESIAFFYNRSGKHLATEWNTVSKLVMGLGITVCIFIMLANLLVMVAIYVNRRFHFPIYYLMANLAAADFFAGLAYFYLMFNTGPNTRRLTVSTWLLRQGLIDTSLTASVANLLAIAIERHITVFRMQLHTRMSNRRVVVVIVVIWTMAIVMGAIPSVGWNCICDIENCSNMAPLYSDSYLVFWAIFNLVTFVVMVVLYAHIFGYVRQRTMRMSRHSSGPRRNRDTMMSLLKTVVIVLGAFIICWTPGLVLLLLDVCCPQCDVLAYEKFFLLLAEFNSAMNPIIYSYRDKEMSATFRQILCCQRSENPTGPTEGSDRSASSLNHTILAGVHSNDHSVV

SMILES | pIC50
Cc1ccc(NC(=O)N(c2ccccc2C(C)C)[C@H]2CC[C@@H](C(C)(C)O)CC2)c(OC(F)F)n1 [Example 238, 3-(2-(difluoromethoxy)-6-methylpyridin-3-yl)-1-((1s,4s)-4-(2-hydroxypropan-2-yl)cyclohexyl)-1-(2-isopropylphenyl)urea] | 6.00 to 7.00
Cc1ccc(NC(=O)N(c2ccccc2C(C)C)C2CCC(NC(=O)c3nccs3)CC2)c(OC(F)F)n1 (stereo not drawn) [Example 268, N-(4-(3-(2-(difluoromethoxy)-6-methylpyridin-3-yl)-1-(2-isopropylphenyl)ureido)cyclohexyl)thiazole-2-carboxamide] | 6.00 to 7.00
CC(C)(C)c1ccccc1N(C(=O)Nc1ncc(Br)cc1OC(F)F)C1CCC(C(=O)O)CC1 (stereo not drawn) [Example 273] | 7.00 to 8.00
Cc1ccc(NC(=O)N(c2ccccc2C(C)C)[C@@H]2CCC[C@H](C(=O)O)C2)c(OC(F)F)n1 [Example 287] | 6.00 to 7.00
COc1ccc(NC(=O)N(c2ccccc2C(C)C)[C@H]2C[C@@H](CC(=O)O)C2)c(OCC(F)F)n1 [Example 332] | 7.00 to 8.00
COc1ccc(NC(=O)N(c2ccccc2C2CC2)[C@H]2CC[C@H](C(=O)O)CC2)c(OC(F)F)n1 [Example 275] | 7.00 to 8.00
COc1ccc(NC(=O)N(c2ccccc2C(C)C)[C@H]2CCC[C@H](C(=O)O)C2)c(OC(F)F)n1 [Example 146] | 7.00 to 8.00
COc1ccc(NC(=O)N(c2ccccc2C(C)C)[C@H]2CC[C@H](S(C)(=O)=O)CC2)c(OC(F)F)n1 [Example 258, 3-(2-(difluoromethoxy)-6-methoxypyridin-3-yl)-1-(2-isopropylphenyl)-1-((1r,4r)-4-(methylsulfonyl)cyclohexyl)urea] | 6.00 to 7.00
Cc1ccc(NC(=O)N(c2ccccc2C(C)C)[C@H]2CC[C@@H](C(F)F)CC2)c(OC(F)F)n1 [Example 245, 3-(2-(difluoromethoxy)-6-methylpyridin-3-yl)-1-((1s,4s)-4-(difluoromethyl)cyclohexyl)-1-(2-isopropylphenyl)urea] | < 6.00
Cc1ccc(NC(=O)N(c2ccccc2C(C)C)C2CC3(CC(C(=O)O)C3)C2)c(OC(F)F)n1 (stereo not drawn) [Example 229] | 7.00 to 8.00
Cc1ccc(NC(=O)N(c2ccccc2C(C)C)[C@H]2C[C@H](O)C2)c(OC(F)F)n1 [Example 181] | 7.00 to 8.00
COc1ccc(NC(=O)N(c2ccccc2C(C)C)[C@H]2C[C@]3(C[C@H]3C(=O)O)C2)c(OC(F)F)n1 [Example 150] | > 8.00
CC(=O)N[C@H]1CC[C@H](N(C(=O)Nc2ccc(C)nc2OC(F)F)c2ccccc2C(C)C)CC1 [Example 267, N-((1r,4r)-4-(3-(2-(difluoromethoxy)-6-methylpyridin-3-yl)-1-(2-isopropylphenyl)ureido)cyclohexyl)acetamide] | 7.00 to 8.00

same assay, conditions: LPAR1 IC50

SMILES | pIC50
COc1ccc(NC(=O)N(c2ccccc2C(C)C)[C@H]2CCN(C(C)=O)C[C@H]2F)c(OC(F)F)n1 [Example 48, 1-((3R,4S)-1-acetyl-3-fluoropiperidin-4-yl)-3-(2-(difluoromethoxy)-6-methoxypyridin-3-yl)-1-(2-isopropylphenyl)urea] | 7.00 to 8.00
CC(=O)N1CCC(N(C(=O)Nc2ncc(C(F)(F)F)cc2Br)c2ccccc2C(C)C)CC1 [Example 139] | < 6.00
COc1nc(OC(F)F)c(NC(=O)N(c2ccccc2C(C)C)C2CCN(C(C)=O)CC2)cc1F [Example 225, 1-(1-acetylpiperidin-4-yl)-3-(2-(difluoromethoxy)-5-fluoro-6-methoxypyridin-3-yl)-l-(2-isopropylphenyl)urea] | 7.00 to 8.00
COC(=O)c1cc(Br)cnc1NC(=O)N(c1ccccc1C(C)C)C1CCN(C(C)=O)CC1 [Example 226] | 6.00 to 7.00
Cc1ccc(NC(=O)N(c2ccccc2C(C)C)C2CCN(C(=O)OC(C)(C)C)CC2)c(OC(F)F)n1 [Example 1, tert-butyl 4-(3-(2-(difluoromethoxy)-6-methylpyridin-3-yl)-1-(2-isopropylphenyl)ureido)piperidine-1-carboxylate] | 6.00 to 7.00
